Experiment: Long-term stability test (ICH conditions)
Assay type: physicochemical
Details: long-term: 25±2° C., 60±5% relative humidity; for Assay of Levofolinic acid (% m/m): anhydrous and solvent free basis; for Appearance: specification white to pale yellow powder
Description: Two specimens of the product obtained in example 1 are subjected to accelerated stability tests and long-term stability tests, respectively; the tests are carried out according to ICH conditions. Long-term: 25±2° C., 60±5% relative humidity Analytical methods used for the stability studies tests are described in the calcium levofolinate monograph of the European Pharmacopoeia.

Aspect of a 1.0% m/V solution in Tris solution corrected at pH = 8.1: Absorbance at 420 nm (0 months): 0.06
Content of Dextrofolinic acid (H) (0 months): <0.10%
Optical rotation of a 1.0% m/V solution in Tris solution corrected at pH = 8.1 (0 months): −12.8 °
Related substances: 5-CHO-4H-Pteroic acid (E) (% area) (0 months): 0.36 % area
Related substances: Any individual unknown impurities (0 months): <0.10 % area
Related substances: Dihydrofolic acid (G) (% area) (0 months): <0.10 % area
Related substances: Folic acid (C) (% area) (0 months): <0.10 % area
Related substances: N^5-N^10-diformyl-THF (B) (% area) (0 months): <0.10 % area
Related substances: N^10-CHO-dihydrofolic acid (F) (% area) (0 months): <0.10 % area
Related substances: N^10-CHO-folic acid (D) (% m/m) (0 months): <0.10 % m/m
Related substances: PABG (A) (% area) (0 months): <0.10 % area
Sum of all relates substances (% area) (0 months): 0.57 % area
Water content (%) (0 months): 0.8%
Assay of Levofolinic acid (% m/m) (0 months): 99.7 % m/m
Appearance (0 months): Conform
Aspect of a 1.0% m/V solution in Tris solution corrected at pH = 8.1: Absorbance at 420 nm (3 months): 0.05
Related substances: 5-CHO-4H-Pteroic acid (E) (% area) (3 months): 0.31 % area
Related substances: Any individual unknown impurities (3 months): <0.10 % area
Related substances: Dihydrofolic acid (G) (% area) (3 months): <0.10 % area
Related substances: Folic acid (C) (% area) (3 months): <0.10 % area
Related substances: N^5-N^10-diformyl-THF (B) (% area) (3 months): <0.10 % area
Related substances: N^10-CHO-dihydrofolic acid (F) (% area) (3 months): 0.13 % area
Related substances: N^10-CHO-folic acid (D) (% m/m) (3 months): <0.10 % m/m
Related substances: PABG (A) (% area) (3 months): <0.10 % area
Sum of all relates substances (% area) (3 months): 0.49 % area
Water content (%) (3 months): 0.8%
Assay of Levofolinic acid (% m/m) (3 months): 100.6 % m/m
Appearance (3 months): Conform
Aspect of a 1.0% m/V solution in Tris solution corrected at pH = 8.1: Absorbance at 420 nm (6 months): 0.06
Content of Dextrofolinic acid (H) (6 months): <0.10%
Related substances: 5-CHO-4H-Pteroic acid (E) (% area) (6 months): 0.34 % area
Related substances: Any individual unknown impurities (6 months): <0.10 % area
Related substances: Dihydrofolic acid (G) (% area) (6 months): <0.10 % area
Related substances: Folic acid (C) (% area) (6 months): <0.10 % area
Related substances: N^5-N^10-diformyl-THF (B) (% area) (6 months): <0.10 % area
Related substances: N^10-CHO-dihydrofolic acid (F) (% area) (6 months): 0.15 % area
Related substances: N^10-CHO-folic acid (D) (% m/m) (6 months): <0.10 % m/m
Related substances: PABG (A) (% area) (6 months): 0.10 % area
Sum of all relates substances (% area) (6 months): 0.70 % area
Water content (%) (6 months): 0.9%
Assay of Levofolinic acid (% m/m) (6 months): 98.8 % m/m
Appearance (6 months): Conform
Aspect of a 1.0% m/V solution in Tris solution corrected at pH = 8.1: Absorbance at 420 nm (9 months): 0.04
Related substances: 5-CHO-4H-Pteroic acid (E) (% area) (9 months): 0.35 % area
Related substances: Any individual unknown impurities (9 months): <0.10 % area
Related substances: Dihydrofolic acid (G) (% area) (9 months): <0.10 % area
Related substances: Folic acid (C) (% area) (9 months): <0.10 % area
Related substances: N^5-N^10-diformyl-THF (B) (% area) (9 months): <0.10 % area
Related substances: N^10-CHO-dihydrofolic acid (F) (% area) (9 months): 0.15 % area
Related substances: N^10-CHO-folic acid (D) (% m/m) (9 months): <0.10 % m/m
Related substances: PABG (A) (% area) (9 months): <0.10 % area
Sum of all relates substances (% area) (9 months): 0.55 % area
Water content (%) (9 months): 1.0%
Assay of Levofolinic acid (% m/m) (9 months): 99.4 % m/m
Appearance (9 months): Conform
Aspect of a 1.0% m/V solution in Tris solution corrected at pH = 8.1: Absorbance at 420 nm (12 months): 0.06
Related substances: 5-CHO-4H-Pteroic acid (E) (% area) (12 months): 0.34 % area
Related substances: Any individual unknown impurities (12 months): <0.10 % area
Related substances: Dihydrofolic acid (G) (% area) (12 months): <0.10 % area
Related substances: Folic acid (C) (% area) (12 months): <0.10 % area
Related substances: N^5-N^10-diformyl-THF (B) (% area) (12 months): <0.10 % area
Related substances: N^10-CHO-dihydrofolic acid (F) (% area) (12 months): 0.18 % area
Related substances: N^10-CHO-folic acid (D) (% m/m) (12 months): <0.10 % m/m
Related substances: PABG (A) (% area) (12 months): 0.11 % area
Sum of all relates substances (% area) (12 months): 0.63 % area
Water content (%) (12 months): 1.1%
Assay of Levofolinic acid (% m/m) (12 months): 99.4 % m/m
Appearance (12 months): Conform
Aspect of a 1.0% m/V solution in Tris solution corrected at pH = 8.1: Absorbance at 420 nm (18 months): 0.05
Optical rotation of a 1.0% m/V solution in Tris solution corrected at pH = 8.1 (18 months): −13.1°
Related substances: 5-CHO-4H-Pteroic acid (E) (% area) (18 months): 0.36 % area
Related substances: Any individual unknown impurities (18 months): <0.10 % area
Related substances: Dihydrofolic acid (G) (% area) (18 months): <0.10 % area
Related substances: Folic acid (C) (% area) (18 months): <0.10 % area
Related substances: N^5-N^10-diformyl-THF (B) (% area) (18 months): <0.10 % area
Related substances: N^10-CHO-dihydrofolic acid (F) (% area) (18 months): 0.17 % area
Related substances: N^10-CHO-folic acid (D) (% m/m) (18 months): <0.10 % m/m
Related substances: PABG (A) (% area) (18 months): 0.11 % area
Structure (SMILES): Nc1nc(=O)c2c([nH]1)NC[C@H](CNc1ccc(C(=O)N[C@@H](CCC(=O)O)C(=O)O)cc1)N2C=O [Example 1, (6S)—N(5)-formyl-5,6,7,8-tetrahydrofolic acid]
